Test results reported in paper doi:10.1101/2020.08.17.255026v1 (biorxiv, 2020).

Key:
PxRDL1 [1] = molecular target: T1, PxRDL1 (Plutella xylostella, UniProt C0L7I5); assay: cell-based; design: species or system Xenopus laevis oocytes
T1 sequence (C0L7I5 26-485): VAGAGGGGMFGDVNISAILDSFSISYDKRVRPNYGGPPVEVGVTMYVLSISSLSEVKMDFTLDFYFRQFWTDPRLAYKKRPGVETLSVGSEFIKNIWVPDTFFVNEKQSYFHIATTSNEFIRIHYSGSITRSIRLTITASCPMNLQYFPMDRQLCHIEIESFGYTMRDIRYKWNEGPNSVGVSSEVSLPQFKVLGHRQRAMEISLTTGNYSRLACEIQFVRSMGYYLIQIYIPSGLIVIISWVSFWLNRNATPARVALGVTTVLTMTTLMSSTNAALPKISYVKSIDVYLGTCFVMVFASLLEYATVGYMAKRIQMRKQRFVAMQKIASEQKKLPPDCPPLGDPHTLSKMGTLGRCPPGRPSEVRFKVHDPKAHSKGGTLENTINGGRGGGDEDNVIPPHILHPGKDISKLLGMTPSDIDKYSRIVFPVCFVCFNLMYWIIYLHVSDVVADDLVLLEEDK

PxRDL2 [2] = molecular target: T2, PxRDL2 (Plutella xylostella, UniProt C0L7I7); assay: two-electrode voltage clamp, Xenopus oocytes; assay type: cell-based
T2 sequence (C0L7I7 30-520): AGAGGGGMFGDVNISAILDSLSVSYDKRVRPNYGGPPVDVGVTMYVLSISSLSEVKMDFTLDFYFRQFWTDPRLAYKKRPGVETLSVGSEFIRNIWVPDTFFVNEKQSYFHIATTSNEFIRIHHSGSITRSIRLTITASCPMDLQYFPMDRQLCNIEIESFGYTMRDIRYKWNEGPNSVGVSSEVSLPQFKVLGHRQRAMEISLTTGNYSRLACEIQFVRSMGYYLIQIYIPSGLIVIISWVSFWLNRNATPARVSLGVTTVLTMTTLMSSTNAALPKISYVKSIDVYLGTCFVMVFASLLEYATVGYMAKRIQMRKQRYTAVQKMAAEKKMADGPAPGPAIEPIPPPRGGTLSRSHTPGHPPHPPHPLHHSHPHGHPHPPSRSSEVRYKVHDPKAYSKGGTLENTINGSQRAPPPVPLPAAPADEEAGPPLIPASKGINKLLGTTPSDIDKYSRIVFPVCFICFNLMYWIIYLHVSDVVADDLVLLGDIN

PxRDL2 [3] = molecular target: T2, PxRDL2; assay: two-electrode voltage clamp, Xenopus oocytes; assay type: cell-based; remark: listed apart in the source
PxRDL1 [4] = molecular target: T1, PxRDL1; assay: cell-based; design: species or system Xenopus laevis oocytes; remark: listed apart in the source

SMILES | EC50 (PxRDL1 [1]) | EC50 (PxRDL2 [2]) | IC50 (PxRDL2 [3]) | IC50 (PxRDL1 [4])
NCCCC(=O)O [GABA] | 20.8 ± 5.99 µM | 153 µM | – | –
N#Cc1nn(-c2c(Cl)cc(C(F)(F)F)cc2Cl)c(N)c1[S+]([O-])C(F)(F)F (stereo not shown) [fipronil] | – | – | 5.23 µM | 0.13 ± 0.01 µM
